The values below are quoted from earlier work in patent US20110208161A1, “INT[…] […] TO THE CENTRAL NERVOUS SYSTEM” (priority 2009, published 2011).

Each structure is given as a SMILES string. Where a SMILES comes first, the peptide text is derived from it.

The data set concerns the target T1, μ receptor (Oryctolagus cuniculus, UniProt G1TAQ8).
T1 construct: host or cells: brain tissue at the fourth ventricle, in vivo
The note with it: infusion into the fourth ventricle.

T1 sequence (G1TAQ8 1-401): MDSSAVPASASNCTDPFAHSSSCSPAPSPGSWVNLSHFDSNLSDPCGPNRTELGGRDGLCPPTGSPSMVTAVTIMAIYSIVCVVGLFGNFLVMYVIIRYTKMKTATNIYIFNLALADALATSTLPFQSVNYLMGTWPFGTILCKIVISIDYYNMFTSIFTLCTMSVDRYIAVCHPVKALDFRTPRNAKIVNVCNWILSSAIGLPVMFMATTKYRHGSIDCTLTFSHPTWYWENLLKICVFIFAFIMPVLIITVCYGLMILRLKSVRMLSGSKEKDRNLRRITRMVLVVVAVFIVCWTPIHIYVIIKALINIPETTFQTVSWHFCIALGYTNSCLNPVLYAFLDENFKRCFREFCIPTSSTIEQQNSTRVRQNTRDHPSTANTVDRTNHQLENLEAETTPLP

`NC(=O)[C@@H]1CCCN1C(=O)[C@H](Cc1ccccc1)NC(=O)[C@@H]1CCCN1C(=O)[C@@H](N)Cc1ccc(O)cc1` [morphiceptin] (H-YPFP-NH2): the “effect on spinal cord nociceptive transmission” value is listed as “attenuate spinal cord nociceptive transmission”.
